# Measurements taken from patent publication US6737383B1, “Herbicidal oxadiazolidines” (priority 1999, dated 2004).
# What was measured:
# rape = assay: Test B pre/postemergence rape; assay type: in vivo, Brassica napus
# In short: (§1)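 Test chemicals in a non-phytotoxic solvent mixture with surfactant were sprayed preemergence onto planted seeds and postemergence onto plants 2 to 18 cm tall (1- to 4-leaf stage). After twelve to sixteen days in a greenhouse, injury was visually rated against untreated controls from 0 (no effect) to 10 (complete control).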
# crabgrass = assay: Test B pre/postemergence crabgrass; assay type: in vivo, Digitaria sanguinalis
# In short: as §1
# cocklebur = assay: Test B pre/postemergence cocklebur; assay type: in vivo, Xanthium strumarium
# In short: as §1
# blackgrass = assay: Test B pre/postemergence blackgrass; assay type: in vivo, Alopecurus myosuroides
# In short: as §1
# rice = assay: Test B flood test rice; assay type: in vivo, Oryza sativa
# In short: (§2)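 Each value is a visual injury score relative to controls, with 10 meaning complete control and 0 no effect. Evaluation took place twelve to sixteen days after the 2-leaf-stage plants were treated and kept in the greenhouse.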
# sugar beet = assay: Test B pre/postemergence sugar beet; assay type: in vivo, Beta vulgaris
# In short: as §1
# bamyardgrass = assay: Test B flood test barnyardgrass; assay type: in vivo, Echinochloa crus-galli
# In short: as §2
# giant foxtail = assay: Test B pre/postemergence giant foxtail; assay type: in vivo, Setaria faberii
# In short: as §1
# wheat = assay: Test B pre/postemergence wheat; assay type: in vivo, Triticum aestivum
# In short: as §1
# purple nutsedge = assay: Test B pre/postemergence purple nutsedge; assay type: in vivo, Cyperus rotundus
# In short: as §1
# smallflower flatsedge = assay: Test B flood test smallflower flatsedge; assay type: in vivo, Cyperus difformis
# In short: as §2
# duck salad = assay: Test B flood test duck salad; assay type: in vivo, Heteranthera limosa
# In short: as §2
# bedstraw = assay: Test B pre/postemergence bedstraw; assay type: in vivo, Galium aparine
# In short: as §1
# corn = assay: Test B pre/postemergence corn; assay type: in vivo, Zea mays
# In short: as §1
# velvetleaf = assay: Test B pre/postemergence velvetleaf; assay type: in vivo, Abutilon theophrasti
# In short: as §1
# surinam grass = assay: Test B pre/postemergence surinam grass; assay type: in vivo, Brachiaria decumbens
# In short: as §1
# soybean = assay: Test B pre/postemergence soybean; assay type: in vivo, Glycine max
# In short: as §1
# [1] = Preemergence, Rate 62 g/ha, scale of 0 to 10 where 0 is no effect and 10 is complete control
# [2] = Preemergence, Rate 250 g/ha, scale of 0 to 10 where 0 is no effect and 10 is complete control
# [3] = Preemergence, Rate 500 g/ha, scale of 0 to 10 where 0 is no effect and 10 is complete control
# [4] = Rate 62 g/ha, Postemergence, scale of 0 to 10 where 0 is no effect and 10 is complete control
# [5] = Rate 125 g/ha, Postemergence, scale 0 to 10
# [6] = Rate 125 g/ha, Preemergence, scale of 0 to 10 where 0 is no effect and 10 is complete control
# [7] = Rate 500 g/ha, Postemergence, scale 0 to 10, 0 no effect, 10 complete control
# [8] = Rate 62 g/ha, headed Pre-emergence (flood test species), scale 0 to 10 (0 no effect, 10 complete control)
# [9] = Rate 125 g/ha, Pre-emergence, flood test species, scale 0 to 10 where 0 is no effect and 10 is complete control
# [10] = Rate 250 g/ha, Pre-emergence, flood-test species, scale 0 to 10, 0 is no effect, 10 is complete control
# [11] = Rate 500 g/ha, Pre-emergence, flood test species, scale 0 to 10 (0 no effect, 10 complete control)
structure (smiles),measurement,setting,value
CON=C(Cn1c(=O)on(C(=O)N(c2ccc(F)cc2)C(C)C)c1=O)C(F)(F)F [Compound 227],Rape plant response rating,rape; [1],0
same,Rape plant response rating,rape; [2],8
same,"Plant response rating, Rape",rape; [3],10
same,Rape plant response rating,rape; [4],0
same,Rape plant response rating,rape; [5],0
same,Rape plant response rating,rape; [6],4
same,"Plant response rating (0 to 10; 0 is no effect, 10 is complete control), Rape","rape; Rate 250 g/ha, Postemergence",0
same,Rape plant response rating,rape; [7],0
same,Crabgrass plant response rating,crabgrass; [1],1
same,Crabgrass plant response rating,crabgrass; [2],10
same,"Plant response rating, Crabgrass",crabgrass; [3],10
same,Crabgrass plant response rating,crabgrass; [4],0
same,Crabgrass plant response rating,crabgrass; [5],0
same,Crabgrass plant response rating,crabgrass; [6],10
same,"Plant response rating (0 to 10; 0 is no effect, 10 is complete control), Crabgrass","crabgrass; Rate 250 g/ha, Postemergence",0
same,Crabgrass plant response rating,crabgrass; [7],3
same,Cocklebur plant response rating,cocklebur; [1],0
same,Cocklebur plant response rating,cocklebur; [2],0
same,"Plant response rating, Cocklebur",cocklebur; [3],0
same,Cocklebur plant response rating,cocklebur; [4],0
same,Cocklebur plant response rating,cocklebur; [5],0
same,Cocklebur plant response rating,cocklebur; [6],0
same,"Plant response rating (0 to 10; 0 is no effect, 10 is complete control), Cocklebur","cocklebur; Rate 250 g/ha, Postemergence",2
same,Cocklebur plant response rating,cocklebur; [7],3
same,Blackgrass plant response rating,blackgrass; [1],2
same,Blackgrass plant response rating,blackgrass; [2],10
same,"Plant response rating, Blackgrass",blackgrass; [3],10
same,Blackgrass plant response rating,blackgrass; [4],0
same,Blackgrass plant response rating,blackgrass; [5],2
same,Blackgrass plant response rating,blackgrass; [6],5
same,"Plant response rating (0 to 10; 0 is no effect, 10 is complete control), Blackgrass","blackgrass; Rate 250 g/ha, Postemergence",7
same,Blackgrass plant response rating,blackgrass; [7],7
same,Rice plant response rating,rice; [8],0
same,Rice plant response rating,rice; [9],0
same,Rice plant response rating,rice; [10],0
same,Rice plant response rating,rice; [11],0
same,Sugarbeets plant response rating,sugar beet; [1],2
same,Sugarbeets plant response rating,sugar beet; [2],6
same,"Plant response rating, Sugarbeets",sugar beet; [3],8
same,Sugarbeets plant response rating,sugar beet; [4],0
same,Sugarbeets plant response rating,sugar beet; [5],0
same,Sugarbeets plant response rating,sugar beet; [6],3
same,"Plant response rating (0 to 10; 0 is no effect, 10 is complete control), Sugarbeets","sugar beet; Rate 250 g/ha, Postemergence",3
same,Sugarbeets plant response rating,sugar beet; [7],5
same,Barnyardgrass plant response rating,bamyardgrass; [8],0
same,Barnyardgrass plant response rating,bamyardgrass; [9],0
same,Barnyardgrass plant response rating,bamyardgrass; [10],0
same,Barnyardgrass plant response rating,bamyardgrass; [11],0
same,Giant foxtail plant response rating,giant foxtail; [1],9
same,Giant foxtail plant response rating,giant foxtail; [2],10
same,"Plant response rating, Giant foxtail",giant foxtail; [3],10
same,Giant foxtail plant response rating,giant foxtail; [4],0
same,Giant foxtail plant response rating,giant foxtail; [5],0
same,Giant foxtail plant response rating,giant foxtail; [6],10
same,"Plant response rating (0 to 10; 0 is no effect, 10 is complete control), Giant foxtail","giant foxtail; Rate 250 g/ha, Postemergence",0
same,Giant foxtail plant response rating,giant foxtail; [7],0
same,Wheat plant response rating,wheat; [1],0
same,Wheat plant response rating,wheat; [2],0
same,"Plant response rating, Wheat",wheat; [3],0
same,Wheat plant response rating,wheat; [4],0
same,Wheat plant response rating,wheat; [5],0
same,Wheat plant response rating,wheat; [6],0
same,"Plant response rating (0 to 10; 0 is no effect, 10 is complete control), Wheat","wheat; Rate 250 g/ha, Postemergence",3
same,Wheat plant response rating,wheat; [7],5
same,Nutsedge plant response rating,purple nutsedge; [1],0
same,Nutsedge plant response rating,purple nutsedge; [2],0
same,Nutsedge plant response rating,purple nutsedge; [4],0
same,Nutsedge plant response rating,purple nutsedge; [5],0
same,Nutsedge plant response rating,purple nutsedge; [6],0
same,"Plant response rating (0 to 10; 0 is no effect, 10 is complete control), Nutsedge","purple nutsedge; Rate 250 g/ha, Postemergence",0
same,Nutsedge plant response rating,purple nutsedge; [7],0
same,S. Flatsedge plant response rating,smallflower flatsedge; [8],0
same,S. Flatsedge plant response rating,smallflower flatsedge; [9],0
same,S. Flatsedge plant response rating,smallflower flatsedge; [10],0
same,S. Flatsedge plant response rating,smallflower flatsedge; [11],0
same,Ducksalad plant response rating,duck salad; [8],0
same,Ducksalad plant response rating,duck salad; [9],0
same,Ducksalad plant response rating,duck salad; [10],0
same,Ducksalad plant response rating,duck salad; [11],0
same,Bedstraw plant response rating,bedstraw; [1],0
same,"Plant response rating, Bedstraw",bedstraw; [3],3
same,Bedstraw plant response rating,bedstraw; [4],7
same,Bedstraw plant response rating,bedstraw; [5],8
same,Bedstraw plant response rating,bedstraw; [6],0
same,"Plant response rating (0 to 10; 0 is no effect, 10 is complete control), Bedstraw","bedstraw; Rate 250 g/ha, Postemergence",8
same,Bedstraw plant response rating,bedstraw; [7],8
same,Corn plant response rating,corn; [1],0
same,Corn plant response rating,corn; [2],0
same,"Plant response rating, Corn",corn; [3],0
same,Corn plant response rating,corn; [4],0
same,Corn plant response rating,corn; [5],0
same,Corn plant response rating,corn; [6],0
same,"Plant response rating (0 to 10; 0 is no effect, 10 is complete control), Corn","corn; Rate 250 g/ha, Postemergence",0
same,Corn plant response rating,corn; [7],0
same,Velvetleaf plant response rating,velvetleaf; [1],0
same,Velvetleaf plant response rating,velvetleaf; [2],0
same,"Plant response rating, Velvetleaf",velvetleaf; [3],2
same,Velvetleaf plant response rating,velvetleaf; [4],0
same,Velvetleaf plant response rating,velvetleaf; [5],0
same,Velvetleaf plant response rating,velvetleaf; [6],0
same,"Plant response rating (0 to 10; 0 is no effect, 10 is complete control), Velvetleaf","velvetleaf; Rate 250 g/ha, Postemergence",0
same,Velvetleaf plant response rating,velvetleaf; [7],3
same,B. signalgrass plant response rating,surinam grass; [1],0
same,B. signalgrass plant response rating,"surinam grass; Preemergence, Rate 250 g/ha, scale 0 to 10, 0 is no effect, 10 is complete control",0
same,"Plant response rating, B. signalgrass",surinam grass; [3],2
same,B. signalgrass plant response rating,surinam grass; [4],0
same,B. signalgrass plant response rating,"surinam grass; Rate 125 g/ha, Postemergence, scale 0 (no effect) to 10 (complete control)",0
same,B. signalgrass plant response rating,surinam grass; [6],0
same,"Plant response rating (0 to 10; 0 is no effect, 10 is complete control), B. signalgrass","surinam grass; Rate 250 g/ha, Postemergence",0
same,B. signalgrass plant response rating,surinam grass; [7],0
same,Soybean plant response rating,soybean; [1],0
same,Soybean plant response rating,soybean; [2],0
same,"Plant response rating, Soybean",soybean; [3],2
same,Soybean plant response rating,soybean; [4],1
same,Soybean plant response rating,soybean; [5],3
same,Soybean plant response rating,soybean; [6],0
same,"Plant response rating (0 to 10; 0 is no effect, 10 is complete control), Soybean","soybean; Rate 250 g/ha, Postemergence",4
same,Soybean plant response rating,soybean; [7],5
